Assay results taken from patent publication US6313111A, “Substituted 6H-1,3,4-thiadiazine-2-amines, the use thereof as anaesthetising, cardiovascular and hypometabolic agents, and pharmaceutical composition containing them” (priority 1998, dated 2001).
Values joined by “and” are separate entries in the source; they are usually repeats but may differ in a detail not shown here. Equal values may be shown once. Where a name gives a salt, the structure may show the parent alone.

Assay: rate of oxygen consumption of mice in closed unit with optic-acoustic gas analyser MN 5130
Type: in vivo, mice of the BALB line
Conditions: relative to starting content
Procedure: In all cases tests were carried out on mice of the BALB line of 3-4 month age. […] In the case of water-soluble compounds, aqueous solutions of the test compounds were injected intraperitoneally (i.p.), while water-insoluble compounds were introduced orally (p.o.).
Rectal temperature changes (absolute magnitues in ° C.) were measured using a medicinal electrothermometer TREM-1 (Table 1). The rate of oxygen consumption was monitored by measuring concentration of oxygen in a closed testing unit with optic-acoustic gas analyser MN 5130. The data on oxygen consumption are given in percents relative to the starting content of oxygen taken as 100%. (Table 2).

c1ccc(C2=NN=C(N3CCOCC3)SC2)cc1 [Compound 1, 2-Morpholino-5-phenyl-6H-1,3,4-thiadiazine, hydrobromide]
consumption of oxygen (O2) (10.0 mg/kg i.p., 0 min): 100 ± 6.9%
consumption of oxygen (O2) (10.0 mg/kg i.p., 10 min): 94.0 ± 5.5%
consumption of oxygen (O2) (10.0 mg/kg i.p., 20 min): 87.3 ± 9.9%
consumption of oxygen (O2) (10.0 mg/kg i.p., 30 min): 78.2%
consumption of oxygen (O2) (10.0 mg/kg i.p., 60 min): 83.3 ± 18.1%
consumption of oxygen (O2) (10.0 mg/kg i.p., 90 min): 75.9 ± 19.3%
consumption of oxygen (O2) (10.0 mg/kg i.p., 120 min): 95.6 ± 10.8%
consumption of oxygen (O2) (10.0 mg/kg i.p., 180 min): 80.6 ± 9.9%
consumption of oxygen (O2) (10.0 mg/kg i.p., 240 min): 92.6 ± 3.9%
consumption of oxygen (O2) (10.0 mg/kg i.p., 300 min): 109.7 ± 8.8%
consumption of oxygen (O2) (35.0 mg/kg i.p., 0 min): 100 ± 7.4%
consumption of oxygen (O2) (35.0 mg/kg i.p., 10 min): 86.3 ± 13.1%
consumption of oxygen (O2) (35.0 mg/kg i.p., 20 min): 73.6 ± 2.6%
consumption of oxygen (O2) (35.0 mg/kg i.p., 30 min): 68.4%
consumption of oxygen (O2) (35.0 mg/kg i.p., 60 min): 70.4 ± 7.1%
consumption of oxygen (O2) (35.0 mg/kg i.p., 90 min): 72.1 ± 10.4%
consumption of oxygen (O2) (35.0 mg/kg i.p., 120 min): 68.4 ± 11.2%
consumption of oxygen (O2) (35.0 mg/kg i.p., 180 min): 78.4 ± 9.3%
consumption of oxygen (O2) (35.0 mg/kg i.p., 240 min): 97.4 ± 5.6%
consumption of oxygen (O2) (35.0 mg/kg i.p., 300 min): 85.1 ± 3.8%
consumption of oxygen (O2) (140.0 mg/kg i.p., 0 min): 100 ± 21.7%
consumption of oxygen (O2) (140.0 mg/kg i.p., 10 min): 26.3 ± 6.8%
consumption of oxygen (O2) (140.0 mg/kg i.p., 20 min): 46.8 ± 4.7%
consumption of oxygen (O2) (140.0 mg/kg i.p., 30 min): 32.2%
consumption of oxygen (O2) (140.0 mg/kg i.p., 60 min): 49.3 ± 9.8%
consumption of oxygen (O2) (140.0 mg/kg i.p., 90 min): 43.6 ± 18.6%
consumption of oxygen (O2) (140.0 mg/kg i.p., 120 min): 49.3 ± 15.4%
consumption of oxygen (O2) (140.0 mg/kg i.p., 180 min): 78.9 ± 10.6%
consumption of oxygen (O2) (140.0 mg/kg i.p., 240 min): 88.8 ± 9.8%
consumption of oxygen (O2) (140.0 mg/kg i.p., 300 min): 105.3 ± 20.5%
consumption of oxygen (O2) (190 mg/kg (1/2 LD16) i.p., 5 min): 43%
consumption of oxygen (O2) (190 mg/kg (1/2 LD16) i.p., 15 min): 71.7%
consumption of oxygen (O2) (190.0 mg/kg i.p., 0 min, hydrobromide): 100% and 100 ± 27.8%
consumption of oxygen (O2) (190.0 mg/kg i.p., 10 min): 26.3 ± 9.8%
consumption of oxygen (O2) (190.0 mg/kg i.p., 20 min): 71.7 ± 4.1%
consumption of oxygen (O2) (190.0 mg/kg i.p., 30 min): 49.2%
consumption of oxygen (O2) (190.0 mg/kg i.p., 60 min, hydrobromide): 29.5% and 29.5 ± 15.0%
consumption of oxygen (O2) (190.0 mg/kg i.p., 90 min, hydrobromide): 47.5% and 47.5 ± 6.8%
consumption of oxygen (O2) (190.0 mg/kg i.p., 120 min, hydrobromide): 36.9% and 36.9 ± 22.8%
consumption of oxygen (O2) (190.0 mg/kg i.p., 180 min, hydrobromide): 55.3% and 55.3 ± 9.1%
consumption of oxygen (O2) (190.0 mg/kg i.p., 240 min, hydrobromide): 99.6% and 99.6 ± 11.2%
consumption of oxygen (O2) (190.0 mg/kg i.p., 300 min, hydrobromide): 151.6% and 151.6 ± 20.7%
consumption of oxygen (O2) (279.0 mg/kg i.p., 0 min): 100 ± 5.2%
consumption of oxygen (O2) (279.0 mg/kg i.p., 10 min): 32.6 ± 2.2%
consumption of oxygen (O2) (279.0 mg/kg i.p., 20 min): 26.7 ± 2.2%
consumption of oxygen (O2) (279.0 mg/kg i.p., 30 min): 20.7%
consumption of oxygen (O2) (279.0 mg/kg i.p., 60 min): 9.3 ± 5.1%
consumption of oxygen (O2) (279.0 mg/kg i.p., 90 min): 10.9 ± 5.5%
consumption of oxygen (O2) (279.0 mg/kg i.p., 120 min): 9.3 ± 5.9%
consumption of oxygen (O2) (279.0 mg/kg i.p., 180 min): 9.3 ± 4.0%
consumption of oxygen (O2) (279.0 mg/kg i.p., 240 min): 13.0 ± 8.7%
consumption of oxygen (O2) (279.0 mg/kg i.p., 300 min): 10.9 ± 1.0%
consumption of oxygen (O2) (365.0 mg/kg i.p., 0 min): 100 ± 4.7%
consumption of oxygen (O2) (365.0 mg/kg i.p., 10 min): 15.2 ± 3.1%
consumption of oxygen (O2) (365.0 mg/kg i.p., 20 min): 15.8 ± 5.0%
consumption of oxygen (O2) (365.0 mg/kg i.p., 30 min): 13.6%
consumption of oxygen (O2) (365.0 mg/kg i.p., 60 min): 13.3 ± 3.7%
consumption of oxygen (O2) (365.0 mg/kg i.p., 90 min): 13.1 ± 2.0%
consumption of oxygen (O2) (365.0 mg/kg i.p., 120 min): 17.0 ± 3.4%
consumption of oxygen (O2) (365.0 mg/kg i.p., 180 min): 11.2 ± 3.4%
consumption of oxygen (O2) (365.0 mg/kg i.p., 240 min): 8.2 ± 2.0%
consumption of oxygen (O2) (dose 36.5 mg/kg (1.06 mM/kg) i.p., 300 min): 18.4 ± 2.0%
